Laboratory results as given in patent US8912121B2, “Herbicidal compositions comprising 4-amino-3-chloro-5-fluoro-6-(4-chloro-2-fluoro-3-methoxyphenyl)pyridine-2-carboxylic acid or a derivative thereof and certain PS II inhibitors” (Dow Agrosciences LLC, priority 2012, dated 2014).

Test system: FIMMI (Fimbristylis miliacea, globe fringerush)
Experiment: In-water applied mixtures, transplanted paddy rice, greenhouse
Assay type: in vivo, Fimbristylis miliacea (L.) Vahl
Details: 19 DAA
Description: Weed seeds or nutlets of the desired test plant species were planted in puddled soil (mud) prepared by mixing a shredded, non-sterilized mineral soil (50.5 percent silt, 25.5 percent clay, and 24 percent sand, with a pH of about 7.6 and an organic matter content of about 2.9 percent) and water at a 1:1 volumetric ratio. The prepared mud was dispensed in 365 mL aliquots into 16-ounce (oz.) non-perforated plastic pots with a surface area of 86.59 square centimeters (cm^2) leaving a headspace of 3 centimeters (cm) in each pot Mud was allowed to dry overnight prior to planting or transplanting. Rice seeds were planted in Sun Gro MetroMix® 306 planting mixture, which typically has a pH of 6.0 to 6.8 and an organic matter content of about 30 percent, in plastic plug trays. Seedlings at the second or third leaf stage of growth were transplanted into 840 mL of mud contained in 32-oz. non-perforated plastic pots with a surface area of 86.59 cm^2 4 days prior to herbicide application. The paddy was created by filling the headspace of the pots with 2.5 to 3 cm of water. When required to ensure good germination and healthy plants, a fungicide treatment and/or other chemical or physical treatment was applied. The plants were grown for 4-22 days in a greenhouse with an approximate 14 h photoperiod which was maintained at about 29° C during the day and 26° C. during the night. Nutrients were added as Osmocote® (19:6:12, N:P:K+ minor nutrients) at 2 g per 16-oz. pot and 4 g per 32-oz. pot. Water was added on a regular basis to maintain the paddy flood, and supplemental lighting was provided with overhead metal halide 1000-Watt lamps as necessary. The plants were employed for testing when they reached the first through fourth true leaf stage.
Treatments consisted of the acid or esters of 4-amino-3-chloro-5-fluoro-6-(4-chloro-2-fluoro-3-methoxy-phenyl)pyridine-2-carboxylic acid (compound A) each formulated as an SC (suspension concentrate) and various herbicidal components alone and in combination. Forms of compound A were applied on an acid equivalent basis.
Other herbicidal components were applied on an active ingredient basis and included photosystem II (PSII)-inhibits propanil formulated as […] bentazon-sodium formulated as Basagran®, and simetryne (technical grade material).
Treatment requirements for each compound or herbicidal component were calculated based upon the rates being tested, the concentration of active ingredient or acid equivalent in the formulation, an application volume of 2 mL per component per pot, and an application area of 86.59 cm^2 per pot.
For formulated compounds, a measured amount was placed in an individual 100 or 200 mL glass vial and was dissolved in a volume of 1.25% (v/v) Agri-Dex® crop oil concentrate to obtain application solutions.
For technical grade compounds, a weighed amount was placed in an individual 100 to 200 mL glass vial and was dissolved in a volume of acetone to obtain concentrated stock solutions. […]
The treated plants and control plants were placed in a greenhouse as described above and water was added as needed to maintain a paddy flood. After approximately 3 weeks the condition of the test plants as compared with that of the untreated plants was determined visually and scored on a scale of 0 to 100 percent where 0 corresponds to no injury or growth inhibition and 100 corresponds to complete kill. […]

SMILES: COc1c(Cl)ccc(-c2nc(C(=O)OCc3ccccc3)c(Cl)c(N)c2F)c1F [Compound A Benzyl Ester, benzyl ester of 4-amino-3-chloro-5-fluoro-6-(4-chloro-2-fluoro-3-methoxy-phenyl)pyridine-2-carboxylic acid]
- Visual Weed Control (%) Obs (8 g ae/ha): 0%
- Visual Weed Control (%) Obs (16 g ae/ha): 0%
- Visual Weed Control (%) Obs (32 g ae/ha): 85%
